“Also recorded” adds a separate entry of the source.

Test [1] deals with T1, human PPARδ ligand binding domain (Homo sapiens, UniProt Q03181).
T1 construct: expressed in transfected cells; host or cells: HEK-293T
T1 sequence (Q03181 211-439 limits assumed): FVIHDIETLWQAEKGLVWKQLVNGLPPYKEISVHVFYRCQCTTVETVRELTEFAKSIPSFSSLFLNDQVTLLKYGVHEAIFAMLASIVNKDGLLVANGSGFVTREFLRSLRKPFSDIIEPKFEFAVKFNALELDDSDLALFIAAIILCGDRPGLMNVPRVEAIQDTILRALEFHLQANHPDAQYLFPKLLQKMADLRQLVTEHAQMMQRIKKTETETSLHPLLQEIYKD
The experiment in a line: PPAR reporter gene assay (Gal4 hybrid, PPARδ). It is filed as cell-based. The following applies: HEK-293T, reference L165,041 1 μM, tested up to 10 μM.
Method: HEK-293T cells were seeded in 96-well plates (2.5 × 10^4 cells/well) and were allowed to adhere overnight. Before transfection, medium was changed to Opti-MEM without supplements. Transient plasmid transfection was carried out using Lipofectamine LTX reagent (Invitrogen, Carlsbad, CA, United States) according to the manufacturer’s protocol with pFR-Luc (Stratagene, La Jolla, CA, United States), pRL-SV40 (Promega, Fitchburg, MA, United States) and pFA-CMV-PPAR-LBD ([Rau et al., 2006]). 5 h after transfection, medium was changed to Opti-MEM supplemented with penicillin (100 U/mL) and streptomycin (100 μg/mL), now additionally containing 0.1% DMSO and the respective test compound or 0.1% DMSO alone as untreated control. Each concentration was tested in triplicates and each experiment was repeated independently at least four times. Following overnight (12–16 h) incubation with the test compounds, cells were assayed for luciferase activity using the Dual-Glo^TM Luciferase Assay System (Promega, Fitchburg, MA, United States) according to the manufacturer’s protocol. Luminescence was measured with an Infinite M200 luminometer (Tecan Group Ltd., Männedorf, Switzerland). Normalization of transfection efficiency and cell growth was done by division of firefly luciferase data by renilla luciferase data and multiplying the value by 1000 resulting in relative light units (RLU). Fold activation was obtained by dividing the mean RLU of a test compound at a respective concentration by the mean RLU of untreated control. Relative activation was obtained by dividing the fold activation of a test compound at a respective concentration by the fold activation of the respective PPARα, γ or δ full agonist GW-7647, pioglitazone or L165,041 at 1 μM. EC50 and standard deviation were calculated with the mean relative activation values of at least four independent experiments by SigmaPlot 10.0 (Systat Software GmbH, Erkrath, Germany) using a four parameter logistic regression. […]

The target of test [2] is T2, human PPARγ ligand binding domain (Homo sapiens, UniProt P37231).
T2 sequence (P37231 238-503 limits assumed): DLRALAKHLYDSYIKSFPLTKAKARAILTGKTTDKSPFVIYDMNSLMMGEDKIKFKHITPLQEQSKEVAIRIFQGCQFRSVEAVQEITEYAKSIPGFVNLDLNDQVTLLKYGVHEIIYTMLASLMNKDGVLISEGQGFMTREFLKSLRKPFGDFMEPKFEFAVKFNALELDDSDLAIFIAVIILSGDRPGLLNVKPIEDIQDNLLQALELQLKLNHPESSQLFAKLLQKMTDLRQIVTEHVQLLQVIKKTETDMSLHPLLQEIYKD
The experiment in a line: PPAR reporter gene assay (Gal4 hybrid, PPARγ). The following applies: for Emax: read-out: PPARγ maximal activation, HEK-293T, relative to pioglitazone (1 μM). For orientation: In a reporter assay the amount or activity of a reporter protein is the signal.
Method: HEK-293T cells were seeded in 96-well plates (2.5 × 10^4 cells/well) and were allowed to adhere overnight. Before transfection, medium was changed to Opti-MEM without supplements. Transient plasmid transfection was carried out using Lipofectamine LTX reagent (Invitrogen, Carlsbad, CA, United States) according to the manufacturer’s protocol with pFR-Luc (Stratagene, La Jolla, CA, United States), pRL-SV40 (Promega, Fitchburg, MA, United States) and pFA-CMV-PPAR-LBD ([Rau et al., 2006]). 5 h after transfection, medium was changed to Opti-MEM supplemented with penicillin (100 U/mL) and streptomycin (100 μg/mL), now additionally containing 0.1% DMSO and the respective test compound or 0.1% DMSO alone as untreated control. Each concentration was tested in triplicates and each experiment was repeated independently at least four times. Following overnight (12–16 h) incubation with the test compounds, cells were assayed for luciferase activity using the Dual-Glo^TM Luciferase Assay System (Promega, Fitchburg, MA, United States) according to the manufacturer’s protocol. Luminescence was measured with an Infinite M200 luminometer (Tecan Group Ltd., Männedorf, Switzerland). Normalization of transfection efficiency and cell growth was done by division of firefly luciferase data by renilla luciferase data and multiplying the value by 1000 resulting in relative light units (RLU). Fold activation was obtained by dividing the mean RLU of a test compound at a respective concentration by the mean RLU of untreated control. Relative activation was obtained by dividing the fold activation of a test compound at a respective concentration by the fold activation of the respective PPARα, γ or δ full agonist GW-7647, pioglitazone or L165,041 at 1 μM. EC50 and standard deviation were calculated with the mean relative activation values of at least four independent experiments by SigmaPlot 10.0 (Systat Software GmbH, Erkrath, Germany) using a four parameter logistic regression.
For this, a hybrid receptor construct containing the respective human PPAR ligand binding domain and hinge region fused to the DNA binding domain of the yeast nuclear receptor Gal4 and a Gal4-responsive firefly luciferase construct were co-transfected into HEK-293T cells together with a plasmid constitutively expressing Renilla luciferase for normalization of transfection efficiency and cell growth. Activation of the PPAR isoforms was compared to 1 μM of the well characterized agonists GW7647, L165,041, and pioglitazone for PPARα, δ, and γ, respectively.

Test [3] has as its system 3T3-L1 cells. The experiment in a line: WST-1 assay (mitochondrial activity) in differentiating 3T3-L1 cells. Format: cell-based, murine. The following applies: 48 h with differentiation cocktail. The procedure: For measurement of cell proliferation, 3T3-L1 cells were seeded in 24-well plates (0.55 × 10^5/well) instead of 6-wells and the differentiation was carried out as described in the section ‘Adipocyte differentiation’. After 2 days of incubation with the differentiation cocktail with or without the PPARγ agonists, WST-1 reagent (Roche Diagnostic GmbH, Mannheim, Germany) was added (1:10) to the supernatant of the differentiating cells. Then, the cells were further incubated for 2 h at 37°C, 5% CO2 to allow color development. After this, cell supernatant absorbance was measured (λabs = 450 nm) and corrected to a reference wavelength (λabs = 690 nm) with an Infinite F200 plate reader (Tecan Group Ltd., Männedorf, Switzerland). After this, background absorbance was subtracted from all measurements and values were normalized to the differentiated control receiving the differentiation cocktail without addition of a PPARγ agonist (w/o).
In addition to lipid accumulation, mitochondrial activity of 3T3-L1 cells during differentiation was investigated by the turnover of the tetrazolium salt WST-1 into a formazan dye. This provides not only further information on the metabolic capacity of the cells after differentiation but can also indicate toxicity of compounds. For this, 3T3-L1 cells were treated with the differentiation cocktail in the presence or absence of PPARγ agonists for 48 h. After this, WST-1 turnover as a measure for mitochondrial activity was assessed (Figure 2C).
In general terms: Tetrazolium assays rely on reduction of a dye to a coloured formazan, in cell work by metabolically active cells.

Test [4] relates to 3T3-L1 cells. Nature of the test: 3T3-L1 adipocyte differentiation, Oil Red O lipid accumulation. The note with it: differentiation cocktail plus zafirlukast or montelukast 1, 5, 10 μM or rosiglitazone 2 μM; 14 days. It is filed as cell-based, murine. The procedure: 3T3-L1 cells were differentiated into adipocytes for 14 days according to the protocol of [Zebisch et al. (2012)]. For this, cells were seeded in 6-well plates ([…]) and differentiation was induced after 48 h by addition of a differentiation cocktail containing 1 μg/mL insulin, 0.25 μM dexamethasone and 0.5 mM isobutylmethylxanthine (IBMX) in DMEM supplemented with 10% FCS and 1% PS. […] After 2 days, medium was replaced by DMEM supplemented with 10% FCS, 1% PS and 1 μg/mL insulin for 2 more days. Afterwards, cells were kept for lipid droplet accumulation in DMEM containing 10% FCS and 1% PS until day 15. Media were replaced every other day.
Differentiated 3T3-L1 cells were washed with PBS and subsequently fixed for 60 min with formaldehyde (4% in PBS). Afterwards, cells were thoroughly rinsed with 60% isopropanol and incubated with Oil Red O solution (0.3% in 60% isopropanol) for 120 min. This was followed by the removal of the staining solution and thorough rinsing of the cell layer with ultrapure water. Finally, the plates were dried and pictures of the stained cell layers were taken.
For quantification of the accumulated dye, 3T3-L1 cells were seeded in 24-well plates (0.55 × 10^5/well) instead of 6-wells and the differentiation was carried out as described in the section ‘Adipocyte differentiation’. After 14 days of differentiation, cells were fixed and stained as described above. […] 100 μl of dye extract were transferred to a 96-well plate and absorbance was measured (λabs = 510 nm) by an Infinite F200 plate reader (Tecan Group Ltd., Männedorf, Switzerland). […]
As master regulator of adipocyte differentiation in men and mice, PPARγ plays a crucial role in the cell’s commitment to the adipocyte lineage by controlling important functions such as intracellular biosynthesis, transport and accumulation of lipids. […] Upon differentiation, different parameters such as lipid accumulation and PPARγ target gene expression can be assessed to investigate the PPARγ activating potential of the compounds of interest. […]

Consider `CC(C)(O)c1ccccc1CC[C@@H](SCC1(CC(=O)O)CC1)c1cccc(/C=C/c2ccc3ccc(Cl)cc3n2)c1` [Montelukast, montelukast], for which the “PPARδ EC50” value in test [1] was “i.a. @ 10 μM”. Besides, the Emax in test [2] (HEK-293T) was 21.9%. The “WST-1 turnover (mitochondrial activity) versus w/o control” value in test [3] (10 μM) was “over threefold”. The “Lipid accumulation (Oil Red O staining)” value in test [4] is on record as “did not trigger any lipid accumulation; also recorded: did not induce cell lipid accumulation”.
Broadly, the EC50 is the concentration giving half of the maximal effect. In the case of `COc1cc(C(=O)NS(=O)(=O)c2ccccc2C)ccc1Cc1cn(C)c2ccc(NC(=O)OC3CCCC3)cc12` [Zafirlukast, zafirlukast], the “PPARδ EC50” value in test [1] was “i.a. @ 10 μM”. In test [2], the EC50 worked out at 2.49 ± 0.45 µM. For the same molecule, the Emax in test [2] (HEK-293T) was around 150%. In addition, the PPARγ maximal activation in test [2] (HEK-293T, relative to pioglitazone (1 μM)) was found to be 148 ± 15%. The “WST-1 turnover (mitochondrial activity) versus w/o control” value in test [3] (1 μM) is recorded as “threefold”; in test [3] (5 and 10 μM), “comparable to the w/o control; also recorded: had no influence on mitochondrial activity”. Further, the “Lipid accumulation (Oil Red O staining)” value in test [4] was “induced lipid accumulation in a dose-dependent manner, but to a lesser extend compared to rosiglitazone”.
